Laboratory results: ChEMBL document CHEMBL5620373, “Establishment of environment-sensitive probes targeting BRD3/BRD4 for imaging and therapy of tumor” (Eur J Med Chem, 2023)
Activity calls are given as the source filed them. The calls are words filed in the database; no cut-off is given here.

Assays:
[1] = Fluorescent property of compound in PBS at pH 7.4 assessed as excitation wavelength by microplate reader analysis; format: physicochemical; conditions: buffer
[2] = Fluorescent property of compound in PBS at pH 7.4 assessed as emission wavelength by microplate reader analysis; format: physicochemical; conditions: buffer
[3] = target: Bromodomain-containing protein 4 (Homo sapiens) (UniProt O60885); test: Binding affinity to recombinant BRD4 (unknown origin) in PBS at pH 7.4 assessed as increase in fluorescence intensity measured after 30 mins by TR-FRET assay; conditions: dose 0.4-3.1 µg/ml
[4] = target: Bromodomain-containing protein 3 (Homo sapiens) (UniProt Q15059); test: Binding affinity to recombinant BRD3 (unknown origin) in PBS at pH 7.4 assessed as increase in fluorescence intensity measured after 30 mins by TR-FRET assay; conditions: dose 15.0 µmol/L
Chain of Bromodomain-containing protein 3 (Homo sapiens) (Q15059 2-726 limits assumed): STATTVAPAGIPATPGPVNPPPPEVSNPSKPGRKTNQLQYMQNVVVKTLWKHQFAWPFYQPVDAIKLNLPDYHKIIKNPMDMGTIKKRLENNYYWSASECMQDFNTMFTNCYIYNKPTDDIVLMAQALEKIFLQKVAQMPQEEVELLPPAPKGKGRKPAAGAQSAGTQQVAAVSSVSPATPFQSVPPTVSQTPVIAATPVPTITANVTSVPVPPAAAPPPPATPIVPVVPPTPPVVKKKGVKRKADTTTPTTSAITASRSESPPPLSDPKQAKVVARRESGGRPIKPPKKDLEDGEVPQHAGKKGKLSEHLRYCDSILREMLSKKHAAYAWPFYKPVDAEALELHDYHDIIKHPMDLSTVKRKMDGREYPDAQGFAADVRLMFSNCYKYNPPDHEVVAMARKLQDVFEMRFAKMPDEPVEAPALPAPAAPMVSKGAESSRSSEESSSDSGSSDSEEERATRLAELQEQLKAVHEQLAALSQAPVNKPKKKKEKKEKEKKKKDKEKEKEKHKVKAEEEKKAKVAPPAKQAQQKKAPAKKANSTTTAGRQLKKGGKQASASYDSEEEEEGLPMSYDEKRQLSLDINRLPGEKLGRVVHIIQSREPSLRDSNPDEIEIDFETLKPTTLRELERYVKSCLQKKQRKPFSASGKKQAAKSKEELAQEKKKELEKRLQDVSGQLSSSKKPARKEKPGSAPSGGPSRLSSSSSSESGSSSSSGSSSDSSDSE

[5] = target: Bromodomain-containing protein 4 (Homo sapiens) (UniProt O60885); test: Binding affinity to recombinant BRD4 (unknown origin) in PBS at pH 7.4 assessed as increase in fluorescence intensity at […] in presence of JQ1(+) by TR-FRET assay; conditions: time 30.0 min
[6] = target: Bromodomain-containing protein 3 (Homo sapiens) (UniProt Q15059); test: Binding affinity to recombinant BRD3 (unknown origin) in PBS at pH 7.4 assessed as increase in fluorescence intensity at […] in presence of JQ1(+) by TR-FRET assay; conditions: time 30.0 min
[7] = Drug uptake in human MCF7 cells assessed as fluorescence emission by fluorescence microscopic analysis; format: ADME, cell-based
[8] = Drug uptake in HEK293 cells assessed as fluorescence emission by fluorescence microscopic analysis; format: ADME, cell-based; conditions: human
[9] = Drug uptake in human MCF7 cells nucleus assessed as fluorescence intensity at 15 umol/L by acridine orange dye based analysis; format: ADME, cell-based; conditions: mcf7, 15 µM, dose 15 µmol/L
[10] = Drug uptake in human MCF7 cells nucleus assessed as fluorescence intensity at 15 umol/L in presence of JQ1(+) by acridine orange dye based analysis; format: ADME, cell-based; conditions: mcf7, 15 µM, dose 15 µmol/L
[11] = Drug uptake in fixed human MCF7 cells nucleus assessed as fluorescence intensity in presence of BRD3 antibody by acridine orange dye based analysis; format: ADME, cell-based
[12] = Drug uptake in fixed human MCF7 cells nucleus assessed as fluorescence intensity in presence of BRD4 antibody by acridine orange dye based analysis; format: ADME, cell-based
[13] = Drug uptake in BRD3 silenced human MCF7 cells nucleus assessed as fluorescence intensity at 15 umol/L by acridine orange dye based analysis; format: ADME, cell-based; conditions: mcf7, 15 µM, dose 15 µmol/L
[14] = Drug uptake in BRD4 silenced human MCF7 cells nucleus assessed as fluorescence intensity at 15 umol/L by acridine orange dye based analysis; format: ADME, cell-based; conditions: mcf7, 15 µM, dose 15 µmol/L
[15] = Drug uptake in BRD3 silenced fixed human MCF7 cells nucleus assessed as fluorescence intensity at 15 umol/L by acridine orange dye based analysis; format: ADME, cell-based; conditions: mcf7, 15 µM, dose 15 µmol/L
[16] = Drug uptake in BRD4 silenced fixed human MCF7 cells nucleus assessed as fluorescence intensity at 15 umol/L by acridine orange dye based analysis; format: ADME, cell-based; conditions: mcf7, 15 µM, dose 15 µmol/L
[17] = Drug uptake in human MCF7 cells xenografted mouse tumor tissue assessed as fluorescence intensity at 15 umol/L by acridine orange dye based fluorescence microscopic assay; format: ADME, cell-based; conditions: in vivo, 15 µM, dose 15 µmol/L
[18] = Drug uptake in human MCF7 cells xenografted nude mouse tumor tissue assessed as fluorescence intensity at 15 umol/L in presence of JQ1(+) by acridine orange dye based fluorescence microscopic assay; format: ADME, Neoplasm; conditions: in vivo, 15 µM, dose 15 µmol/L
[19] = Drug uptake in human MCF7 cells xenografted nude mouse tumor tissue in presence of BRD3 antibody by immunofluorescence analysis; format: ADME, Neoplasm; conditions: in vivo
[20] = Drug uptake in human MCF7 cells xenografted nude mouse tumor tissue in presence of BRD4 antibody by immunofluorescence analysis; format: ADME, Neoplasm; conditions: in vivo
[21] = test system: MCF7; test: Antiproliferative activity against human MCF7 cells assessed as reduction in cell viability by MTT assay; format: functional, cell-based
[22] = test system: MCF7; test: Inhibition of cell migration in human MCF7 cells assessed as reduction in wound healing at 1 umol/L measured upto 72 hrs by scratch assay; format: functional, cell-based; conditions: dose 1.0 µmol/L
[23] = test system: MCF7; test: Inhibition of cell migration in human MCF7 cells assessed as reduction in wound healing at 10 umol/L measured upto 72 hrs by scratch assay; format: functional; conditions: MCF7, 72 h, dose 10 µmol/L
[24] = test system: MCF7; test: Induction of apoptosis in human MCF7 cells assessed as increase in early apoptotic cells after 48 hrs by flow cytometry analysis; format: functional, cell-based
[25] = test system: MCF7; test: Induction of apoptosis in human MCF7 cells assessed as increase in AMPK mRNA level at 1 to 10 umol/L after 48 hrs by qRT-PCR analysis; format: functional, cell-based; conditions: dose 1-10 µmol/L
[26] = test system: MCF7; test: Induction of apoptosis in human MCF7 cells assessed as increase in Bcl-2 mRNA level at 1 to 10 umol/L after 48 hrs by qRT-PCR analysis; format: functional, cell-based; conditions: dose 1-10 µmol/L
[27] = test system: MCF7; test: Induction of apoptosis in human MCF7 cells assessed as decrease in c-Myc mRNA level at 1 to 10 umol/L after 48 hrs by qRT-PCR analysis; format: functional, cell-based; conditions: dose 1-10 µmol/L
[28] = test system: MCF7; test: Induction of apoptosis in human MCF7 cells assessed as increase in AMPK mRNA level at 1 to 10 umol/L by qRT-PCR analysis; format: functional, cell-based; conditions: dose 1-10 µmol/L, TDE = time-dependent effect
[29] = test system: MCF7; test: Induction of apoptosis in human MCF7 cells assessed as increase in Bcl-2 mRNA level at 1 to 10 umol/L by qRT-PCR analysis; format: functional, cell-based; conditions: dose 1-10 µmol/L, TDE = time-dependent effect
[30] = test system: MCF7; test: Induction of apoptosis in human MCF7 cells assessed as decrease in c-Myc mRNA level at 1 to 10 umol/L by qRT-PCR analysis; format: functional, cell-based; conditions: dose 1-10 µmol/L, TDE = time-dependent effect
[31] = test system: MCF7; test: Induction of apoptosis in human MCF7 cells assessed as increase in AMPK mRNA level after 48 hrs by qRT-PCR analysis; format: functional, cell-based; conditions: dose 1-10 µmol/L
[32] = test system: MCF7; test: Induction of apoptosis in human MCF7 cells assessed as increase in Bcl-2 mRNA level after 48 hrs by qRT-PCR analysis; format: functional, cell-based; conditions: dose 1-10 µmol/L
[33] = test system: MCF7; test: Induction of apoptosis in human MCF7 cells assessed as decrease in c-Myc mRNA level after 48 hrs by qRT-PCR analysis; format: functional, cell-based; conditions: dose 1-10 µmol/L

| Compound | Activity [1] [nm] | Activity [2] [nm] | Drug uptake [7] | Drug uptake [8] | inhibition [22] | inhibition at 10 µM [23] [%] | Activity [24] | Activity [25] | Activity [26] | Activity [27] | Activity [28] | Activity [29] | Activity [30] | Activity [31] | Activity [32] | Activity [33] | other results |
| --- | --- | --- | --- | --- | --- | --- | --- | --- | --- | --- | --- | --- | --- | --- | --- | --- | --- |
| Cc1sc2c(c1C)C(c1ccc(Cl)cc1)=N[C@@H](CC(=O)NCCCNS(=O)(=O)c1cccc3c(N(C)C)cccc13)c1nnc(C)n1-2 | 350 | 495 | Active | Not Active | Active | 100 | Active | Active | Active | Active | Tde | Tde | Tde | Dose-Dependent Effect | Dose-Dependent Effect | Dose-Dependent Effect | Activity [3]: Dose-Dependent Effect; Activity [4]: Dose-Dependent Effect; Activity [5]: inactive; Activity [6]: inactive; Drug uptake [9]: Active; Drug uptake [10]: Not Active; Drug uptake [11]: Active; Drug uptake [12]: Active; Drug uptake [13]: Active; Drug uptake [14]: Active; Drug uptake [15]: Active; Drug uptake [16]: Active; Drug uptake [17]: Active; Drug uptake [18]: Not Active; Drug uptake [19]: Active; Drug uptake [20]: Active; Activity [21]: Active |
| Cc1sc2c(c1C)C(c1ccc(Cl)cc1)=N[C@@H](CC(=O)NCCCCNS(=O)(=O)c1cccc3c(N(C)C)cccc13)c1nnc(C)n1-2 | 350 | 495 | Active | Not Active | – | – | – | – | – | – | – | – | – | – | – | – | – |
| Cc1sc2c(c1C)C(c1ccc(Cl)cc1)=N[C@@H](CC(=O)OC(C)(C)C)c1nnc(C)n1-2 | – | – | – | – | Active | 100 | Active | Active | Active | Active | Tde | Tde | Tde | Dose-Dependent Effect | Dose-Dependent Effect | Dose-Dependent Effect | – |
| Cc1sc2c(c1C)C(c1ccc(Cl)cc1)=N[C@@H](CC(=O)NCCCCCNS(=O)(=O)c1cccc3c(N(C)C)cccc13)c1nnc(C)n1-2 | 350 | 495 | Active | Not Active | – | – | – | – | – | – | – | – | – | – | – | – | – |
